Source: PubChem BioAssay (NCI)
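Growth conditions: 96-well plates. Treatment: test compound, 48 hours, 5 concentrations. Analysis: linear interpolation between bracketing concentrations; unreached endpoints set to highest concentration. Abbreviation: GI50, concentration required for 50% inhibition of growth. The concentration for full growth arrest is given as TGI.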

Columns and labels:
Assay in all cases: inhibition of tumour cell growth, NCI panel, 48 h
K-562 leukemia = system: K-562 leukemia
HOP-62 NSCLC = system: HOP-62 NSCLC
HCC-2998 colon = system: HCC-2998 colon
786-0 renal = system: 786-0 renal
MOLT-4 leukemia = system: MOLT-4 leukemia
ACHN renal = system: ACHN renal
MALME-3M melanoma = system: MALME-3M melanoma
OVCAR-3 ovarian = system: OVCAR-3 ovarian
DMS 114 small cell lung = system: DMS 114 small cell lung
NCI-H23 lung = system: NCI-H23 lung
SR leukemia = system: SR leukemia
UO-31 renal = system: UO-31 renal
EKVX NSCLC = system: EKVX NSCLC
SK-MEL-2 melanoma = system: SK-MEL-2 melanoma
SK-MEL-5 melanoma = system: SK-MEL-5 melanoma
NCI-H226 lung = system: NCI-H226 lung
SN12C renal = system: SN12C renal
OVCAR-4 ovarian = system: OVCAR-4 ovarian
DLD-1 colon = system: DLD-1 colon
XF 498 CNS = system: XF 498 CNS
SNB-78 CNS = system: SNB-78 CNS
HOP-92 NSCLC = system: HOP-92 NSCLC
OVCAR-8 ovarian = system: OVCAR-8 ovarian
HL-60(TB) leukemia = system: HL-60(TB) leukemia
SF-268 CNS = system: SF-268 CNS
SNB-19 CNS = system: SNB-19 CNS
A549 NSCLC = system: A549 NSCLC
CCRF-CEM leukemia = system: CCRF-CEM leukemia
RXF-631 renal = system: RXF-631 renal
LOX IMVI melanoma = system: LOX IMVI melanoma
SF-295 CNS = system: SF-295 CNS
RPMI-8226 leukemia = system: RPMI-8226 leukemia
RXF 393 renal = system: RXF 393 renal
COLO 205 colon = system: COLO 205 colon
CAKI-1 renal = system: CAKI-1 renal
KM12 colon = system: KM12 colon
HCT-15 colon = system: HCT-15 colon
IGROV1 ovarian = system: IGROV1 ovarian
SW-620 colon = system: SW-620 colon
UACC-62 melanoma = system: UACC-62 melanoma
LXFL 529 NSCLC = system: LXFL 529 NSCLC
UACC-257 melanoma = system: UACC-257 melanoma
KM20L2 colon = system: KM20L2 colon
U251 CNS = system: U251 CNS
HCT-116 colon = system: HCT-116 colon
NCI-H460 lung = system: NCI-H460 lung
M14 melanoma = system: M14 melanoma
SK-OV-3 ovarian = system: SK-OV-3 ovarian
OVCAR-5 ovarian = system: OVCAR-5 ovarian
HOP-18 NSCLC = system: HOP-18 NSCLC
TK-10 renal = system: TK-10 renal
SF-539 CNS = system: SF-539 CNS
HT29 colon = system: HT29 colon
M19-MEL melanoma = system: M19-MEL melanoma

[C-]#[O+].[C-]#[O+].[C-]#[O+].[C-]#[O+].[Ir].[Ir].[O-]c1ccc2ccccc2c1C=Nc1ccc(N=Cc2c([O-])ccc3ccccc23)cc1
GI50 (K-562 leukemia): 40.1 µM
TGI (K-562 leukemia): > 100 µM
GI50 (HOP-62 NSCLC): > 100 µM
TGI (HOP-62 NSCLC): > 100 µM
GI50 (HCC-2998 colon): > 100 µM
TGI (HCC-2998 colon): > 100 µM
GI50 (786-0 renal): 46.3 µM
TGI (786-0 renal): > 100 µM
GI50 (MOLT-4 leukemia): 37.1 µM
TGI (MOLT-4 leukemia): > 100 µM
GI50 (ACHN renal): > 100 µM
TGI (ACHN renal): > 100 µM
GI50 (MALME-3M melanoma): > 100 µM
TGI (MALME-3M melanoma): > 100 µM
GI50 (OVCAR-3 ovarian): > 100 µM
TGI (OVCAR-3 ovarian): > 100 µM
GI50 (DMS 114 small cell lung): > 100 µM
TGI (DMS 114 small cell lung): > 100 µM
GI50 (NCI-H23 lung): > 100 µM
TGI (NCI-H23 lung): > 100 µM
GI50 (SR leukemia): > 100 µM
TGI (SR leukemia): > 100 µM
GI50 (UO-31 renal): > 100 µM
TGI (UO-31 renal): > 100 µM
GI50 (EKVX NSCLC): > 100 µM
TGI (EKVX NSCLC): > 100 µM
GI50 (SK-MEL-2 melanoma): > 100 µM
TGI (SK-MEL-2 melanoma): > 100 µM
GI50 (SK-MEL-5 melanoma): > 100 µM
TGI (SK-MEL-5 melanoma): > 100 µM
GI50 (NCI-H226 lung): > 100 µM
TGI (NCI-H226 lung): > 100 µM
GI50 (SN12C renal): > 100 µM
TGI (SN12C renal): > 100 µM
GI50 (OVCAR-4 ovarian): > 100 µM
TGI (OVCAR-4 ovarian): > 100 µM
GI50 (DLD-1 colon): > 100 µM
TGI (DLD-1 colon): > 100 µM
GI50 (XF 498 CNS): > 100 µM
TGI (XF 498 CNS): > 100 µM
GI50 (SNB-78 CNS): > 100 µM
TGI (SNB-78 CNS): > 100 µM
GI50 (HOP-92 NSCLC): 40 µM
TGI (HOP-92 NSCLC): > 100 µM
GI50 (OVCAR-8 ovarian): > 100 µM
TGI (OVCAR-8 ovarian): > 100 µM
GI50 (HL-60(TB) leukemia): 75.5 µM
TGI (HL-60(TB) leukemia): > 100 µM
GI50 (SF-268 CNS): > 100 µM
TGI (SF-268 CNS): > 100 µM
GI50 (SNB-19 CNS): 63.6 µM
TGI (SNB-19 CNS): > 100 µM
GI50 (A549 NSCLC): > 100 µM
TGI (A549 NSCLC): > 100 µM
GI50 (CCRF-CEM leukemia): 66 µM
TGI (CCRF-CEM leukemia): > 100 µM
GI50 (RXF-631 renal): > 100 µM
TGI (RXF-631 renal): > 100 µM
GI50 (LOX IMVI melanoma): > 100 µM
TGI (LOX IMVI melanoma): > 100 µM
GI50 (SF-295 CNS): > 100 µM
TGI (SF-295 CNS): > 100 µM
GI50 (RPMI-8226 leukemia): > 100 µM
TGI (RPMI-8226 leukemia): > 100 µM
GI50 (RXF 393 renal): > 100 µM
TGI (RXF 393 renal): > 100 µM
GI50 (COLO 205 colon): > 100 µM
TGI (COLO 205 colon): > 100 µM
GI50 (CAKI-1 renal): > 100 µM
TGI (CAKI-1 renal): > 100 µM
GI50 (KM12 colon): > 100 µM
TGI (KM12 colon): > 100 µM
GI50 (HCT-15 colon): > 100 µM
TGI (HCT-15 colon): > 100 µM
GI50 (IGROV1 ovarian): > 100 µM
TGI (IGROV1 ovarian): > 100 µM
GI50 (SW-620 colon): > 100 µM
TGI (SW-620 colon): > 100 µM
GI50 (UACC-62 melanoma): > 100 µM
TGI (UACC-62 melanoma): > 100 µM
GI50 (LXFL 529 NSCLC): > 100 µM
TGI (LXFL 529 NSCLC): > 100 µM
GI50 (UACC-257 melanoma): > 100 µM
TGI (UACC-257 melanoma): > 100 µM
GI50 (KM20L2 colon): 59.2 µM
TGI (KM20L2 colon): > 100 µM
GI50 (U251 CNS): > 100 µM
TGI (U251 CNS): > 100 µM
GI50 (HCT-116 colon): > 100 µM
TGI (HCT-116 colon): > 100 µM
GI50 (NCI-H460 lung): > 100 µM
TGI (NCI-H460 lung): > 100 µM
GI50 (M14 melanoma): > 100 µM
TGI (M14 melanoma): > 100 µM
GI50 (SK-OV-3 ovarian): > 100 µM
TGI (SK-OV-3 ovarian): > 100 µM
GI50 (OVCAR-5 ovarian): > 100 µM
TGI (OVCAR-5 ovarian): > 100 µM
GI50 (HOP-18 NSCLC): > 100 µM
TGI (HOP-18 NSCLC): > 100 µM
GI50 (TK-10 renal): > 100 µM
TGI (TK-10 renal): > 100 µM
GI50 (SF-539 CNS): > 100 µM
TGI (SF-539 CNS): > 100 µM
GI50 (HT29 colon): > 100 µM
TGI (HT29 colon): > 100 µM
GI50 (M19-MEL melanoma): > 100 µM
TGI (M19-MEL melanoma): > 100 µM
